The source of these data is patent publication US11434246B2, “EP4 antagonists” (Eisai R&D Management Co., Ltd., priority 2015, dated 2022).

Data set [1] deals with T1, EP4 (Homo sapiens, UniProt P35408). In words: Competitive Radioligand EP4 Receptor Binding Assay ([3H]-PGE2, Chem-1 cell membranes). Also on record: purchased Millipore; host or cells: Chem-1 cells. As to conditions: human EP4-overexpressing cell membrane fraction, 12 nM [3H]-PGE2; read-out: Ki of inhibition of radiolabelled PGE2 binding, human EP4. The procedure:
(§1) Competitive Radioligand EP4 Receptor Binding Assay: The assay was performed using ChemiScreen recombinant human EP4 receptor membrane preparations from Millipore using Chem-1 cells and mouse EP4 receptor membrane preparations from Genscript using U2OS clone, according to manufacturer's instructions. For human EP4 binding, 10 μg Chem-1 cell membranes overexpressing human EP4 cDNA were mixed with 12 nM [^3H]-PGE2 and 5 μmol/L unlabeled PGE2 or 0.1% DMSO in the presence or absence of various concentrations of testing compounds in binding buffer (50 mM HEPES, pH 7.4, 5 mM MgCl2, 1 mM CaCl2, 0.2% BSA) in a nonbinding 96-well plate, and incubated for 2 h at room temperature. For mouse EP4 binding, 60 μg of U2OS membranes were used in the same condition. Prior to filtration, a GF/C 96-well filter plate was coated with 0.33% polyethyleneimine for 30 min, then washed with 50 mM HEPES, pH 7.4, 0.5% BSA. Binding reactions were transferred to the filter plate, and washed 3 times with assay Wash Buffer (50 mM HEPES, pH7.4, 500 mM NaCl, 0.1% BSA). The plate was dried and radioactivity counted. The data were processed using PRISM software, and IC50 and Ki values were calculated using the same software.

In another data set the test system is 4T1 cells. Description: In vivo anti-tumor pharmacology, mouse breast 4T1 syngeneic tumor model. The method, then:
In vivo Anti-tumor Pharmacology: 4T1 cells were maintained in RPMI 1640 medium supplemented with 10% FBS at 37° C. and 5% CO2 atmosphere. Cell detachment was obtained using standard trypsinization methods, quantification of cell numbers and viability information using the NC-200 automated cell counter. Compound 1 was thoroughly suspended in 0.5% methyl cellulose (MC) by sonication at 4° C. for 15 min before oral administration (p.o.) to animals. BALB/c mice were injected subcutaneously (s.c.) with live 1×10^5 4 T1 cells. Mice developed tumors of approximately 36 mm^3 in 5 days. 4T1 tumor-bearing mice were randomized and mapped into 5 groups of 10 mice each: group A received vehicle (0.5% MC); group B received 0.1 mg/kg of compound 1; group C received 1 mg/kg of compound 1, group D received 25 mg/kg of compound 1; and group E received 150 mg/kg of compound 1. All treatments were give p.o. daily for 21 consecutive days. Tumor volumes and body weights were measured twice weekly. Study was terminated 27 days after tumor cell injection. Tumor volumes were expressed as mean±SEM. Tumor volume differences among treated mouse groups on day 27 were analyzed by the one-way ANOVA followed by Tukey's test. P≤0.05 values were considered significant.

The target in the next data set is T2, mouse EP4 receptor (Mus musculus, UniProt P32240).
T2 construct: purchased Genscript; host or cells: U2OS clone
T2 sequence (P32240 whole entry): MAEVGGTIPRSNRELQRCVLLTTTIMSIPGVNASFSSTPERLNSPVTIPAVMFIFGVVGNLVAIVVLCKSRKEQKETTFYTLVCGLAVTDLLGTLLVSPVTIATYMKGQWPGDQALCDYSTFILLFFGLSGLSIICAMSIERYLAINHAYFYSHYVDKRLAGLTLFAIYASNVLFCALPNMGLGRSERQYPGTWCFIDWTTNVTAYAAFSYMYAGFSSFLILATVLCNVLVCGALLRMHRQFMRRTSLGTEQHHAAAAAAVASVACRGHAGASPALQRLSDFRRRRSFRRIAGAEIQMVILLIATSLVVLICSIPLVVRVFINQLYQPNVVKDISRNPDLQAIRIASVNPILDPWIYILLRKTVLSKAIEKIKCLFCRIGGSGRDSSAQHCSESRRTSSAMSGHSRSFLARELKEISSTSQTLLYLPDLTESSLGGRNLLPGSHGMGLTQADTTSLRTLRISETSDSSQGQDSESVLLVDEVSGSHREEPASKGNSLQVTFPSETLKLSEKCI
Description: Competitive Radioligand EP4 Receptor Binding Assay ([3H]-PGE2, U2OS membranes). Particulars: mouse EP4-overexpressing cell membrane fraction, 12 nM [3H]-PGE2; read-out: Ki of inhibition of radiolabelled PGE2 binding, mouse EP4. The procedure:
as §1

Data set [2] deals with T1, EP4. Description: EP4 Antagonism by CRE-PLAP Reporter Assay (SE302 cells, PGE2-stimulated). It counts as cell-based. Also on record: HEK293 cells express endogenous EP4; endogenous in cells; host or cells: SE302 (HEK293 clone with CRE-PLAP reporter). Particulars: SE302 (HEK293) cells, 3 ng/mL PGE2, overnight; single or multiple assay average values. The gist of the method:
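HEK293-derived SE302 cells with endogenous EP4 and CRE-driven secreted PLAP, in serum-free medium with 0.1% BSA, stimulated overnight with 3 ng/mL PGE2 plus compound. Supernatant PLAP read by luminescence (pH 11 carbonate buffer, 2 h). IC50 from % of control, normalized to DMSO with and without PGE2.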
A general note: Reporter assays use an easily measured gene product as a stand-in for the process of interest.

T1 sequence (P35408 whole entry): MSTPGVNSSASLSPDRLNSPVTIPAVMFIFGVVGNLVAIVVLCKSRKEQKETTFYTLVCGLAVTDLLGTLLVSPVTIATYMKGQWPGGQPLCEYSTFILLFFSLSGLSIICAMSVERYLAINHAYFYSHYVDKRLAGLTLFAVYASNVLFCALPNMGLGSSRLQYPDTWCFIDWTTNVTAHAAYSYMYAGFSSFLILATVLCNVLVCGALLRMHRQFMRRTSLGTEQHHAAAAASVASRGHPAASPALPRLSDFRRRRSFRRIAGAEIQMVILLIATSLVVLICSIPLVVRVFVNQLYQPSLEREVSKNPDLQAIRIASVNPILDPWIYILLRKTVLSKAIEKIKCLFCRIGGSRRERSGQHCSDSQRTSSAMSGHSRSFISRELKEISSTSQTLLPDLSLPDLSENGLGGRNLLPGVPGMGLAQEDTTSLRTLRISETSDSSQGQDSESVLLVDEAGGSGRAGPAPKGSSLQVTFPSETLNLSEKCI

For the compound `C[C@H](NC(=O)c1c(C(F)(F)F)nn2c1N(Cc1cccc(C(F)(F)F)c1)CC2)c1ccc(C(=O)O)cc1` [Compound 1, (S)-4-(1-(6-(trifluoromethyl)-1-(3-(trifluoromethyl)benzyl)-2,3-dihydro-1H-imidazo[1,2-b]pyrazole-7-carboxamido)ethyl)benzoic Acid], the Ki – broadly, a dissociation constant, usually derived from enzyme kinetics or from competition with a known ligand – at EP4 [1] came to 4.2 nM; at mouse EP4 receptor it was 26.3 nM. For the same compound, the “gross toxicity judged from animal body weight and overall animal behavior” value in the data set on 4T1 cells (0.1-150 mg/kg p.o. daily for 21 days, BALB/c mice) is given as “None of the doses tested showed gross toxicity”. The tumor growth inhibition entry in the data set on 4T1 cells (0.1 and 1.0 mg/kg p.o. daily for 21 days, day 27) is “some inhibition was observed, but without statistical significance”; with 4T1 cells (25 and 150 mg/kg p.o. daily for 21 days, day 27), “Statistically significant inhibition of tumor growth”; with 4T1 cells (25 and 150 mg/kg p.o. daily for 21 days, day 27, listed as compound 1) it was “significant and comparable anti-tumor activity”; in the data set on 4T1 cells (BALB/c mice, 4T1 s.c. tumors, p.o. daily for 21 days, range 0.1 mg/kg-150 mg/kg), “inhibited the tumor growth in a dose-dependent manner”. It took 0.34 nM to reach half-maximal inhibition at EP4 [2] (IC50).
Take `C[C@H](NC(=O)c1c(C(F)(F)F)nn2c1N(Cc1ccc(Cl)c(C(F)(F)F)c1)CC2)c1ccc(C(=O)O)cc1` [Compound 63, (S)-4-(1-(1-(4-chloro-3-(trifluoromethyl)benzyl)-6-(trifluoromethyl)-2,3-dihydro-1H-imidazo[1,2-b]pyrazole-7-carboxamido)ethyl)benzoic acid]: at EP4 [2], the IC50 (as a rule, the concentration that inhibits the measured activity by half) amounted to 1.3 nM.
Regarding `C[C@H](NC(=O)c1c(C(F)(F)F)nn2c1N(Cc1cccc(C(F)(F)F)c1)C[C@H]2COCc1ccccc1)c1ccc(C(=O)O)cc1` [Compound 80, 4-((S)-1-((S)-3-((benzyloxy)methyl)-6-(trifluoromethyl)-1-(3-(trifluoromethyl)benzyl)-2,3-dihydro-1H-imidazo[1,2-b]pyrazole-7-carboxamido)ethyl)benzoic Acid], the IC50 at EP4 [2] came to 58.1 nM.
On the same count and under the same terms, with `C[C@H](NC(=O)c1c(C(F)(F)F)nn2c1N(Cc1cccc(COCCF)c1)CC2)c1ccc(C(=O)O)cc1` [Compound 74, (S)-4-(1-(1-(3-((2-fluoroethoxy)methyl)benzyl)-6-(trifluoromethyl)-2,3-dihydro-1H-imidazo[1,2-b]pyrazole-7-carboxamido)ethyl)benzoic Acid] the figure was 28 nM; with `C[C@H](NC(=O)c1c(C(F)(F)F)nn2c1N(c1ccc(C(F)(F)F)cc1)CC2)c1ccc(C(=O)O)cc1` [Compound 47, (S)-4-(1-(6-(trifluoromethyl)-1-(4-(trifluoromethyl)phenyl)-2,3-dihydro-1H-imidazo[1,2-b]pyrazole-7-carboxamido)ethyl)benzoic Acid], 48.9 nM.
Same read-out and setting: with `C[C@H](NC(=O)c1c(C(F)(F)F)nn2c1N(Cc1ccc(C(F)(F)F)cc1)CC2)c1ccc(C2CC2)cc1` [Compound 57, (S)—N-(1-(4-cyclopropylphenyl)ethyl)-6-(trifluoromethyl)-1-(4-(trifluoromethyl)benzyl)-2,3-dihydro-1H-imidazo[1,2-b]pyrazole-7-carboxamide] the figure was 310 nM.
`C[C@H](NC(=O)c1c(C(F)(F)F)nn2c1N(Cc1cc(N(C)C)cc(C(F)(F)F)c1)CC2)c1ccc(C(=O)O)cc1` [Compound 90, (S)-4-(1-(1-(3-(dimethylamino)-5-(trifluoromethyl)benzyl)-6-(trifluoromethyl)-2,3-dihydro-1H-imidazo[1,2-b]pyrazole-7-carboxamido)ethyl)benzoic Acid] registered an IC50 against EP4 [2] of 6.37 nM. This IC50 is about 49-fold lower than that of the compound before.
`Cc1ccc(CN2CCn3nc(C(F)(F)F)c(C(=O)N[C@@H](C)c4ccc(C(=O)O)cc4)c32)cc1` [Compound 17, (S)-4-(1-(1-(4-methylbenzyl)-6-(trifluoromethyl)-2,3-dihydro-1H-imidazo[1,2-b]pyrazole-7-carboxamido)ethyl)benzoic Acid] registered an IC50 against EP4 [2] of 1.65 nM. Against the preceding compound, the IC50 is about 3.9-fold lower.
The compound `C[C@H](NC(=O)c1c(C(F)(F)F)nn2c1N(Cc1cccc(F)c1)CC2)c1ccc(C(=O)O)cc1` [Compound 15, (S)-4-(1-(1-(3-fluorobenzyl)-6-(trifluoromethyl)-2,3-dihydro-1H-imidazo[1,2-b]pyrazole-7-carboxamido)ethyl)benzoic Acid] registered a 50% inhibitory concentration (IC50) against EP4 [2] of 1.65 nM.
Turning to `C[C@H](NC(=O)c1c(C(F)(F)F)nn2c1N(Cc1cc(C(F)(F)F)cc(C(F)(F)F)c1)CC2)c1ccc(C(=O)O)cc1` [Compound 5, (S)-4-(1-(1-(3,5-bis(trifluoromethyl)benzyl)-6-(trifluoromethyl)-2,3-dihydro-1H-imidazo[1,2-b]pyrazole-7-carboxamido)ethyl)benzoic Acid], the IC50 on EP4 [2] was determined as 45.9 nM.
Still for that read-out and setting: with `C=C1CCC(CN2CCn3nc(C(F)(F)F)c(C(=O)N[C@@H](C)c4ccc(C(=O)O)cc4)c32)CC1` [Compound 79, (S)-4-(1-(1-((4-methylenecyclohexyl)methyl)-6-(trifluoromethyl)-2,3-dihydro-1H-imidazo[1,2-b]pyrazole-7-carboxamido)ethyl)benzoic acid] the figure was 18.9 nM.
In the case of `COc1ccc(CN2CCn3nc(C(F)(F)F)c(C(=O)N[C@@H](C)c4ccc(C(=O)O)cc4)c32)cc1` [Compound 8, (S)-4-(1-(1-(4-methoxybenzyl)-6-(trifluoromethyl)-2,3-dihydro-1H-imidazo[1,2-b]pyrazole-7-carboxamido)ethyl)benzoic Acid], at EP4 [2], the IC50 was 8.03 nM.
